In patent US7776873B2, “Method for treating damage to gastric mucosa” (Yuhan Corporation, priority 2005, dated 2010):

What was measured:
[1] = tested on: ERK (extracellular signal-regulated kinase); test: H. pylori-induced ERK activation (Western blot for p-ERK); format: cell-based, human; details: AGS cells, 5 and 25 uM for 16 hours, then H. pylori 30 minutes, FIG. 4
Procedure: H. pylori-induced cytotoxicity activates MAPK (Mitogen-Activated Protein Kinase), thereby resulting in apoptosis. Therefore, H. pylori infection leads to an increase in phosphorylation of ERK among three major subfamilies of MAPKs.
The human gastric epithelial (AGS, KCLB 21739) cells were seeded in culture dishes at 2×10^6 cells/100 mm^2 and cultured in RPMI 1640 (Gibco BRL, Grand Island, N.Y., U.S.A.), supplemented with 100 units/mL penicillin, 100 ug/mL streptomycin, and 10% FBS (Fetal Bovine Serum). Revaprazan, dissolved in sterilized water, were added to AGS cells to reach final concentrations of 5 and 25 uM and the cells were incubated at 37° C. for 16 hours. RPMI 1640 media was removed and then the cells washed three times with PBS (137 mM NaCl, 2.7 mM KCl, 10 mM Na2HPO4, and 2 mM KH2PO4). For inoculation, H. pylori (ATCC 43504) cultures were resuspended in PBS and cocultured with AGS cells at a final concentration of 5×10^8 CFU/ml. After 30 minutes of incubation at 37° C., the cells were resuspended in lysis buffer (20 mM Tris-Cl (pH 7.5), 150 mM NaCl, 1% Triton X-100, 1 mM EDTA, and protease inhibitor cocktail (Roche, Mannheim, Germany)). The suspension was sonicated for approximately 10 seconds, four times using the BIORUPTOR (Cosmo Bio, Koto-ku, Tokyo), and centrifuged at 4° C., 12000 rpm for 30 minutes. […]

[2] = tested on: NF-kB (nuclear factor-kappa B); test: DNA binding activity of NF-kB after H. pylori infection (EMSA); format: cell-based, human; details: FIG. 5
Procedure: The DNA binding activity of NF-kB (nuclear factor-kappa B), a redox-sensitive transcription factor known to be associated with H. pylori infection was evaluated using EMSA. Rebamipide (50 μM), known to have cytoprotective properties, was used as a control drug, and revaprazan (25 μM) was used as a test drug. The human gastric epithelial (AGS, KCLB 21739) cells were seeded in culture dishes at 2×10^6 cells/100 mm^2 and cultured in RPMI 1640 (Gibco BRL, Grand Island, N.Y., U.S.A.), supplemented with 100 units/mL penicillin, 100 ug/mL streptomycin, and 10% FBS (Fetal Bovine Serum). […] The culture media were removed and the cells were twice washed with PBS (137 mM NaCl, 2.7 mM KCl, 10 mM Na2HPO4, and 2 mM KH2PO4). For inoculation, H. pylori (ATCC 43504) cultures were resuspended in PBS and cocultured with AGS cells at a final concentration of 5×10^8 CFU/ml at 37° C. for one hour. The nuclear fractions for EMSA were prepared using the NE-PER Nuclear and the Cytoplasmic Extraction Kit (Pierce, Rockford, Ill., U.S.A.). Sequences of double-stranded oligonucleotides used for EMSA of NF-kB were as follows; [NT], and the oligonucleotides were labeled with a Biotin 3' End DNA Labeling Kit (Pierce, Rockford, Ill., U.S.A.). The EMSA was performed with a Light Shift Chemiluminescent EMSA Kit (Pierce, Rockford, Ill., U.S.A.).

[3] = tested on: indomethacin-induced gastric mucosal lesions; test: Preventive effect on NSAID-induced gastropathy; format: in vivo, Sprague Dawley male rats; details: rats, oro-gastric pretreatment (revaprazan 5, 10 mg/kg; rebamipide 30 mg/kg; omeprazole 5 mg/kg) prior to indomethacin 40 mg/kg for 12 hrs, FIG. 8
Procedure: Six-week old specific-pathogen-free (SPF) Sprague Dawley male rats (Charles River, Tokyo, Japan) were used for experiments. The rats were fed a sterilized commercial pellet diet (Biogenomics Co., Seoul, Korea), given sterile water ad libitum, and housed in air-conditioned biohazard room with a 12-h light:12-h dark cycle. The rats were food-deprived 24 hours, and then administered with 5, 10 mg/kg revaprazan, 30 mg/kg rebamipide and 5 mg/kg omeprazole suspended in 0.5% CMC (carboxymethylcellulose) via oro-gastric tube prior to exposure to indomethacin (40 mg/kg for 12 hrs). Phosphate-buffered saline was perfused into the gastric lumen of the rats to swell the stomachs. Then, the stomachs were opened by an incision along the greater curvature, and the total area of the gastric mucosal lesions was calculated to obtain the average size of the lesions.

[4] = tested on: indomethacin-induced gastric mucosal lesions; test: Treatment effect on NSAID-induced gastropathy; format: in vivo, Sprague Dawley male rats; details: rats, 5 mg/kg and 10 mg/kg given 8 hours after indomethacin 40 mg/kg, for one hour, FIG. 9
Procedure: Six-week old specific-pathogen-free (SPF) Sprague Dawley male rats (Charles River, Tokyo, Japan) were used for experiments. The rats were fed a sterilized commercial pellet diet (Biogenomics Co., Seoul, Korea), given sterile water ad libitum, and housed in air-conditioned biohazard room with a 12-h light:12-h dark cycle. The rats were food-deprived 24 hours, and then treated with 1 ml of a solution of indomethacin (40 mg/kg) in 0.5% CMC (carboxymethylcellulose) via oro-gastric tube. 8 hours after the indomethacin treatment, the rats were treated with 1 ml of a solution of revaprazan (5 mg/kg and 10 mg/kg) in 0.5% CMC for one hour, and the degree of gastropathy was determined in the same manner as in Example 8.

Cc1nc(Nc2ccc(F)cc2)nc(N2CCc3ccccc3C2C)c1C (stereo not drawn) [revaprazan, 5,6-dimethyl-2-(4-fluorophenylamino)-4-(1-methyl-1,2,3,4-tetrahydroisoquinolin-2-yl)pyrimidine]
effect on ERK activation (p-ERK) [1]: significant, concentration-dependent inhibitory effect | NF-kB activity (DNA binding) ([2]; AGS cells, 25 uM pretreatment for 16 hours, then H. pylori one hour): significantly inhibited | cytoprotective effect (NF-kB inhibition) compared with rebamipide ([2]; revaprazan 25 uM vs rebamipide 50 uM): equal to or greater than rebamipide | hemorrhagic gastric mucosal lesions after pretreatment [3]: little hemorrhagic lesions are observed | gastric mucosal hemorrhagic lesions after treatment [4]: remarkably improved | number of erosions and ulcers [4]: reduced
